From patent US7208500B2, “Thienopyridine-phenylacetamides and their derivatives useful as new anti-angiogenic agents” (Agouron Pharmaceuticals, Inc., priority 2003, dated 2007)
pIC50, pKi: −log10 of the molar value.

What was measured:
[1] = tested on: human umbilical vein endothelial cells (HUVEC); assay: HUVEC + VEGF proliferation assay; type: cell-based; conditions: VEGF-stimulated proliferation, final VEGF 6 ng/mL, 72 hours, MTT
Experimental: This assay determines the ability of a test compound to inhibit the growth factor-stimulated proliferation of human umbilical vein endothelial cells (“HUVEC”). HUVEC cells (passage 3–4, Clonetics, Corp.) were thawed into EGM2 culture medium (Clonetics Corp) in T75 flasks. Fresh EGM2 medium was added to the flasks 24 hours later. Four or five days later, cells were exposed to another culture medium (F12K medium supplemented with 10% fetal bovine serum (FBS), […] endothelial cell growth supplement (ECGS), and 0.1 mg/mL heparin). Exponentially-growing HUVEC cells were used in experiments thereafter. Ten to twelve thousand HUVEC cells were plated in 96-well dishes in […] of rich, culture medium (described above). The cells were allowed to attach for 24 hours in this medium. The medium was then removed by aspiration and […] of starvation media (F12K+1% FBS) was added to each well. After 24 hours, […] of test agent dissolved in 1% DMSO in starvation medium or this vehicle alone was added into each treatment well; the final DMSO concentration was 0.1%. One hour later, […] of VEGF (30 ng/mL) in starvation media was added to all wells except those containing untreated controls; the final VEGF concentration was 6 ng/mL. Cellular proliferation was quantified 72 hours later by MTT dye reduction, at which time cells were exposed for 4 hours MTT (Promega Corp.). Dye reduction was stopped by addition of a stop solution (Promega Corp.) and absorbance at 595 nm was determined on a 96-well spectrophotometer plate reader.

[2] = target: T1, unphosphorylated VEGF-R2D50 (FLVK), cytosolic domain of human VEGF-R2 (Homo sapiens, UniProt P35968, DEL940-989/E990V); assay: VEGF-R2 coupled spectrophotometric assay (FLVK); type: biochemical
T1 construct: VEGF-R2D50 contains residues 806–939 and 990–1171; made in house; host or cells: baculovirus/insect cell system
T1 sequence (P35968 with tags, fused parts or gaps DEL940-989/E990V limits assumed): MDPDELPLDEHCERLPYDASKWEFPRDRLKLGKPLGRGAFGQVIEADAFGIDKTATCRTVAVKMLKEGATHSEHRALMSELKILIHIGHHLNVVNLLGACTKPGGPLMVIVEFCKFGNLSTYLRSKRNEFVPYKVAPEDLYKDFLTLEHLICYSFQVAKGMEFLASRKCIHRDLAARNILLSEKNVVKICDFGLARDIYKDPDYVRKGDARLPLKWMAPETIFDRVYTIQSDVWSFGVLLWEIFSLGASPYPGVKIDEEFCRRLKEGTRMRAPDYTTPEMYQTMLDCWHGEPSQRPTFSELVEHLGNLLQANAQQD
Excerpt: This construct determines the ability of a test compound to inhibit tyrosine kinase activity. A construct (VEGF-R2D50) of the cytosolic domain of human vascular endothelial growth factor receptor 2 (VEGF-R2) lacking the 50 central residues of the 68 residues of the kinase insert domain was expressed in a baculovirus/insect cell system. Of the 1356 residues of full-length VEGF-R2, VEGF-R2D50 contains residues 806–939 and 990–1171, and also one point mutation (E990V) within the kinase insert domain relative to wild-type VEGF-R2. Autophosphorylation of the purified construct was performed by incubation of the enzyme at a concentration of […] in the presence of 3 mM ATP and 40 mM MgCl2 in 100 mM HEPES, pH 7.5, containing 5% glycerol and 5 mM DTT, at 4° C. for 2 h. […] See Parast et al., Biochemistry, 37, 16788–16801 (1998).
The production of ADP from ATP that accompanies phosphoryl transfer was coupled to oxidation of NADH using phosphoenolpyruvate (PEP) and a system having pyruvate kinase (PK) and lactic dehydrogenase (LDH). The oxidation of NADH was monitored by following the decrease of absorbance at 340 nm (e340=6.22 cm^−1 mM^−1) using a Beckman DU 650 spectrophotometer. Assay conditions for phosphorylated VEGF-R2D50 (indicated as FLVK-P in the tables below) were the following: 1 mM PEP; […]; 50 units of LDH/mL; 20 units of PK/mL; 5 mM DTT; 5.1 mM poly(E4Y1); 1 mM ATP; and 25 mM MgCl2 in 200 mM HEPES, pH 7.5. Assay conditions for unphosphorylated VEGF-R2D50 (indicated as FLVK in the tables) were the following: 1 mM PEP; […]; 50 units of LDH/mL; 20 units of PK/mL; 5 mM DTT; 20 mM poly(E4Y1); 3 mM ATP; and 60 mM MgCl2 and 2 mM MnCl2 in 200 mM HEPES, pH 7.5. Assays were initiated with 5 to 40 nM of enzyme. Ki values were determined by measuring enzyme activity in the presence of varying concentrations of test compounds. The percent inhibition at 50 nm (% inhibition@50 nm) was determined by linear least-squares regression analysis of absorpbance as a function of time. The binding inhibitions were fitted to equation as described by Morrison. The data were analyzed using Enzyme Kinetic and Kaleidagraph software.

[3] = target: T2, FGF-R1 intracellular kinase domain (Homo sapiens, UniProt P11362, C488A/C584S/L457V); assay: FGF-R spectrophotometric assay; type: biochemical; conditions: 50 nM test compound; read-out: FGF-P (% inh @ 50 nM)
T2 construct: starting from the endogenous methionine residue 456 to glutamate 766; made in house; host or cells: baculovirus vector expression system
T2 sequence (P11362 456-766 L457V/C488A/C584S): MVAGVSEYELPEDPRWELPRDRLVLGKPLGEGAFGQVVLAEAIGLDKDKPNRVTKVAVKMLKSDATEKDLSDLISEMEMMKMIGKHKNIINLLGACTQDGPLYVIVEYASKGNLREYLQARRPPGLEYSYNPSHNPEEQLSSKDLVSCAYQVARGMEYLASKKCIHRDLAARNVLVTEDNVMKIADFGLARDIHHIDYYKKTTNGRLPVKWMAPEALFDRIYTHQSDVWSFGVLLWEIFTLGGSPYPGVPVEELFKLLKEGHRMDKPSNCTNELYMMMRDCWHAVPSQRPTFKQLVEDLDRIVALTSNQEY
Experimental: The intracellular kinase domain of human FGF-R1 was expressed using the baculovirus vector expression system starting from the endogenous methionine residue 456 to glutamate 766, according to the residue numbering system of Mohammadi et al., Mol. Cell. Biol., 16, 977–989 (1996). In addition, the construct also has the following 3 amino acid substitutions: L457V, C488A, and C584S.
The spectrophotometric assay was carried out as described above for VEGF-R2, except for the following changes in concentration: FGF-R=50 nM, ATP=2 mM, and poly(E4Y1)=15 mM.

Row | Structure (SMILES) | pIC50 [1] | pKi [2] | inhibition at 0.05 µM [3] [%]
1 | Cc1cc(C)nc(NC(=O)Cc2ccc(Oc3ccnc4cc(C(=O)N5CC[C@@H](O)C5)sc34)cc2)c1 [Example 14, N-(4,6-Dimethyl-pyridin-2-yl)-2-{4-[2-((R)-3-hydroxy-pyrrolidine-1-carbonyl)-thieno[3,2-b]pyridin-7-yloxy]-phenyl}-acetamide] | 8.00 to 9.00 | > 9.00 | 5 to 10
2 | Cc1ccnc(NC(=O)Cc2ccc(Oc3ccnc4cc(C(=O)N5CC[C@@H](O)C5)sc34)cc2)c1 [Example 15, 2-{4-[2-((R)-3-Hydroxy-pyrrolidine-1-carbonyl)-thieno[3,2-b]pyridin-7-yloxy]-phenyl}-N-(4-methyl-pyridin-2-yl)-acetamide] | > 9.00 | > 9.00 | 0 to 5
3 | O=C(Cc1ccc(Oc2ccnc3cc(C(=O)N4CC[C@@H](O)C4)sc23)cc1)Nc1ccc(Cl)cn1 [Example 16, N-(5-Chloro-pyridin-2-yl)-2-{4-[2-((R)-3-hydroxy-pyrrolidine-1-carbonyl)-thieno[3,2-b]pyridin-7-yloxy]-phenyl}-acetamide] | < 8.00 | 8.00 to 9.00 | 0 to 5
4 | O=C(Cc1ccc(Oc2ccnc3cc(C(=O)N4CC[C@@H](O)C4)sc23)cc1)Nc1cc2ccccc2cn1 [Example 17, 2-{4-[2-((R)-3-Hydroxy-pyrrolidine-1-carbonyl)-thieno[3,2-b]pyridin-7-yloxy]-phenyl}-N-isoquinolin-3-yl-acetamide] | < 8.00 | > 9.00 | > 10
5 | O=C(Cc1ccc(Oc2ccnc3cc(C(=O)N4CC[C@@H](O)C4)sc23)cc1)Nc1ccc(C(F)(F)F)cn1 [Example 18, 2-{4-[2-((R)-3-Hydroxy-pyrrolidine-1-carbonyl)-thieno[3,2-b]pyridin-7-yloxy]-phenyl}-N-(5-trifluoromethyl-pyridin-2-yl)-acetamide] | < 8.00 | > 9.00 | 5 to 10
6 | O=C(Cc1ccc(Oc2ccnc3cc(C(=O)N4CC[C@@H](O)C4)sc23)cc1)Nc1ccccn1 [Example 19, 2-{4-[2-((R)-3-Hydroxy-pyrrolidine-1-carbonyl)-thieno[3,2-b]pyridin-7-yloxy]-phenyl}-N-pyridin-2-yl-acetamide] | < 8.00 | 8.00 to 9.00 | 0 to 5
7 | O=C(Cc1ccc(Oc2ccnc3cc(C(=O)N4CC[C@@H](O)C4)sc23)cc1)Nc1ccccc1 [Example 20, 2-{4-[2-((R)-3-Hydroxy-pyrrolidine-1-carbonyl)-thieno[3,2-b]pyridin-7-yloxy]-phenyl}-N-phenyl-acetamide] | 8.00 to 9.00 | 8.00 to 9.00 | 0 to 5
8 | Cc1ccnc(NC(=O)Cc2ccc(Oc3ccnc4cc(C(=O)N5CCC5)sc34)cc2)c1 [Example 23, 2-{4-[2-(Azetidine-1-carbonyl)-thieno[3,2-b]pyridin-7-yloxy]-phenyl}-N-(4-methyl-pyridin-2-yl)-acetamide] | > 9.00 | > 9.00 | 0 to 5
9 | Cc1ccc(NC(=O)Cc2ccc(Oc3ccnc4cc(C(=O)N5CCC5)sc34)cc2)nc1 [Example 24, 2-{4-[2-(Azetidine-1-carbonyl)-thieno[3,2-b]pyridin-7-yloxy]-phenyl}-N-(5-methyl-pyridin-2-yl)-acetamide] | 8.00 to 9.00 | > 9.00 | 0 to 5
10 | Cc1cccc(NC(=O)Cc2ccc(Oc3ccnc4cc(C(=O)N5CCC5)sc34)cc2)n1 [Example 25, 2-{4-[2-(Azetidine-1-carbonyl)-thieno[3,2-b]pyridin-7-yloxy]-phenyl}-N-(6-methyl-pyridin-2-yl)-acetamide] | 8.00 to 9.00 | > 9.00 | 5 to 10
11 | O=C(Cc1ccc(Oc2ccnc3cc(C(=O)N4CCC4)sc23)cc1)Nc1ccc(C(F)(F)F)cn1 [Example 27, 2-{4-[2-(Azetidine-1-carbonyl)-thieno[3,2-b]pyridin-7-yloxy]-phenyl}-N-(5-trifluoromethyl-pyridin-2-yl)-acetamide] | 8.00 to 9.00 | > 9.00 | 0 to 5
12 | O=C(Cc1ccc(Oc2ccnc3cc(C(=O)N4CCC4)sc23)cc1)Nc1ccc(Cl)cn1 [Example 28, 2-{4-[2-(Azetidine-1-carbonyl)-thieno[3,2-b]pyridin-7-yloxy]-phenyl}-N-(5-chloro-pyridin-2-yl)-acetamide] | > 9.00 | > 9.00 | 5 to 10
13 | O=C(Cc1ccc(Oc2ccnc3cc(C(=O)N4CCC4)sc23)cc1)Nc1ccc(F)cn1 [Example 29, 2-{4-[2-(Azetidine-1-carbonyl)-thieno[3,2-b]pyridin-7-yloxy]-phenyl}-N-(5-fluoro-pyridin-2-yl)-acetamide] | < 8.00 | 8.00 to 9.00 | 0 to 5
14 | O=C(Cc1ccc(Oc2ccnc3cc(C(=O)N4CCC4)sc23)cc1)Nc1ccc(Br)cn1 [Example 30, 2-{4-[2-(Azetidine-1-carbonyl)-thieno[3,2-b]pyridin-7-yloxy]-phenyl}-N-(5-bromo-pyridin-2-yl)-acetamide] | 8.00 to 9.00 | > 9.00 | 0 to 5
15 | O=C(Cc1ccc(Oc2ccnc3cc(C(=O)N4CCC4)sc23)cc1)Nc1cc2ccccc2cn1 [Example 31, 2-{4-[2-(Azetidine-1-carbonyl)-thieno[3,2-b]pyridin-7-yloxy]-phenyl}-N-isoquinolin-3-yl-acetamide] | > 9.00 | > 9.00 | 0 to 5
16 | O=C(Cc1ccc(Oc2ccnc3cc(C(=O)N4CCC4)sc23)cc1)Nc1nccc2ccccc12 [Example 32, 2-{4-[2-(Azetidine-1-carbonyl)-thieno[3,2-b]pyridin-7-yloxy]-phenyl}-N-isoquinolin-1-yl-acetamide] | < 8.00 | 8.00 to 9.00 | 0 to 5
17 | O=C(Cc1ccc(Oc2ccnc3cc(C(=O)N4CCC4)sc23)cc1)Nc1ccc2ccccc2n1 [Example 33, 2-{4-[2-(Azetidine-1-carbonyl)-thieno[3,2-b]pyridin-7-yloxy]-phenyl}-N-quinolin-2-yl-acetamide] | < 8.00 | > 9.00 | 0 to 5
18 | Cc1cc(NC(=O)Cc2ccc(Oc3ccnc4cc(C(=O)N5CCC5)sc34)cc2)no1 [Example 41, 2-{4-[2-(Azetidine-1-carbonyl)-thieno[3,2-b]pyridin-7-yloxy]-phenyl}-N-(5-methyl-isoxazol-3-yl)-acetamide] | 8.00 to 9.00 | 8.00 to 9.00 | 5 to 10
